Laboratory results taken from article PMC11768664 (Viruses, 2024).
In brackets after ≈: the same amount, converted by molar mass. Several values for one entry are separate records, joined by “and”; a condition that tells them apart may be missing. Equal entries are not always repeated. Where two headings read alike, the source gives them in different places.

Columns and labels:
[1] = test system: W12E 20850 cervical precancer cells; assay: Growth inhibition MTT assay on W12 clone 20850 (episomal HPV16); format: cell-based; settings: for IC50: 120 h, read-out: IC50, growth inhibitory activity on W12 clone 20850
[2] = test system: W12I 20822 cervical precancer cells; assay: Growth inhibition MTT assay on W12 clone 20822 (type 1 integrant); format: cell-based
[3] = test system: W12I 20862 cervical precancer cells; assay: Growth inhibition MTT assay on W12 clone 20862 (type 2 integrant); format: cell-based
[4] = test system: W12I 20861 cervical precancer cells; assay: Growth inhibition MTT assay on W12 clone 20861 (type 2 integrant); format: cell-based; settings: 120 h, read-out: IC50, growth inhibitory activity on W12 clone 20861
[5] = test system: HeLa human cervical cancer cells; assay: Growth inhibition (proliferation) MTT assay on HeLa cells; format: cell-based; settings: for IC50: Homo sapiens
[6] = test system: HT29 colon cancer cells; assay: Growth inhibition (proliferation) MTT assay on HT29 cells; format: cell-based; settings: Homo sapiens
[7] = test system: cell cycle genes in HeLa cells; assay: Gene expression analysis of HeLa cells treated with curcumin; format: cell-based, human; settings: curcumin 32 µM, 8 h
[8] = target: Na^+/K^+-ATPase; set-up: method as in earlier work; settings: read-out: IC50, inhibition of the activity of the Na+/K+-ATPase, cited from earlier work
[9] = test system: J2 3T3 mouse embryo fibroblasts (feeder cells); assay: Growth inhibition MTT assay on 3T3 feeder cells; format: cell-based; settings: NIH3T3, read-out: IC50, growth inhibitory activity on 3T3 feeder cells
[10] = test system: HeLa human cervical cancer cells; assay: Combination growth inhibition assay and Combination Index on HeLa cells; format: cell-based
[11] = 120 h, read-out: IC50, growth inhibitory activity on W12 clone 20822
[12] = 120 h, read-out: IC50, growth inhibitory activity on W12 clone 20862
[13] = MTT, 96 h (Figure 1 legend; table footnote prints 120 h), read-out: IC50, growth inhibitory activity on HeLa cells
[14] = HT-29, HT29, MTT, 96 h (Figure 1 legend; table footnote prints 120 h), read-out: IC50, growth inhibitory activity on HT29 cells

In the case of `COC1=CC(=O)O[C@@H](CCc2ccc3c(c2)OCO3)C1` [DHM, dihydromethysticin], the IC50 [1] is reported as 24.7 µg/mL (≈ 89.4 µM), the IC50 [2, 11] is reported as 10.2 µg/mL and the IC50 [3, 12] is reported as 12.8 µg/mL. The IC50 [4] was 12.4 µg/mL (≈ 44.9 µM).

Compound `CC(=O)O[C@@H]1C[C@@]23C[C@@]24CC[C@H](O[C@@H]2OC[C@@H](O)[C@H](O)[C@H]2O)C(C)(C)[C@@H]4CC[C@H]3[C@]2(C)C[C@@H]3O[C@]4(C[C@@H](C)[C@@H]3[C@@]12C)O[C@H](O)[C@@]1(C)O[C@@H]41` [actein] has an IC50 [1] of 41.7 µg/mL (≈ 61.6 µM), an IC50 [2, 11] of 55.7 µg/mL and an IC50 [3, 12] of 36.3 µg/mL. The IC50 [4] was 37.9 µg/mL (≈ 56 µM).

With `CC(C)c1cc2c(c(O)c1O)[C@@]1(C(=O)O)CCCC(C)(C)[C@@H]1CC2` [carnosic acid] the IC50 [5, 13] was 2.03 µg/mL (≈ 6.11 µM), the IC50 [6, 14] was 2.13 µg/mL (≈ 6.41 µM) and the IC50 [1] was 13 µg/mL (≈ 39.1 µM). For the same compound, the IC50 [2, 11] was 10.7 µg/mL, the IC50 [3, 12] was 10 µg/mL and the IC50 [4] was 14.1 µg/mL (≈ 42.4 µM).

With `COc1cc(/C=C/C(=O)CC(=O)/C=C/c2ccc(O)c(OC)c2)ccc1O` [curcumin] the “Ratio, ATM (NM_000051)” value [7] was 15.43, the “Ratio, CDC6 (NM_001254)” value [7] was 2.68 and the “Ratio, CDC20 (NM_016263)” value [7] was 19.4. The “Ratio, CDKN1B (NM_004064)” value [7] was 2.77, the “Ratio, E2F4 (NM_001950)” value [7] was 2.37 and the “Ratio, E2F5 (NM_001951)” value [7] was 2.94. For the same compound, the “Ratio, GSK3B (NM_002093)” value [7] was 2.09, the “Ratio, ORC1L (NM_004153)” value [7] was 3.10 and the “Ratio, PLK1 (NM_005030)” value [7] was 2.01. For the same compound, the “Ratio, SKP2 (NM_005983)” value [7] was 5.03, the “Ratio, SMAD4 (NM_005359)” value [7] was 3.49 and the “Ratio, SMC3 (NM_005445)” value [7] was −3.89. For the same compound, the “Ratio, STAG1 (NM_005862)” value [7] was 2.37, the “Ratio, STAG2 (NM_001042749)” value [7] was −3.56 and the “Ratio, ZBTB17 (NM_003443)” value [7] was 2.48. For the same compound, the “Ratio, ATM (NM_138292)” value ([7]; text prints fold) was 36 and 35.94 and the IC50 ([8]; as previously described) was 2 µM.

For `C[C@H]1O[C@@H](O[C@H]2[C@@H](O)C[C@H](O[C@H]3[C@@H](O)C[C@H](O[C@H]4CC[C@@]5(C)[C@H](CC[C@@H]6[C@@H]5CC[C@]5(C)[C@@H](C7=CC(=O)OC7)CC[C@]65O)C4)O[C@@H]3C)O[C@@H]2C)C[C@H](O)[C@@H]1O` [digitoxin, reference compound], the IC50 ([5]; 96 h, read-out: Growth inhibitory Activity (ug/mL), HeLa Cells) is given as 0.12 µg/mL (≈ 0.157 µM), the IC50 ([6]; HT-29, 96 h, read-out: Growth inhibitory Activity (ug/mL), HT29 Cells) is given as 0.13 µg/mL (≈ 0.17 µM) and the IC50 ([8]; comparator, unit inferred) is given as < 0.1 µM.

In the case of `C[C@H]1O[C@@H](O[C@H]2[C@@H](O)C[C@H](O[C@H]3[C@@H](O)C[C@H](O[C@H]4CC[C@@]5(C)[C@H](CC[C@@H]6[C@@H]5C[C@@H](O)[C@]5(C)[C@@H](C7=CC(=O)OC7)CC[C@]65O)C4)O[C@@H]3C)O[C@@H]2C)C[C@H](O)[C@@H]1O` [digoxin, reference compound], the IC50 ([5]; read-out: IC50, growth inhibitory activity on HeLa cells) is reported as 0.12 µg/mL (≈ 0.154 µM), the IC50 ([6]; HT-29, read-out: IC50, growth inhibitory activity on HT29 cells) is reported as 0.13 µg/mL (≈ 0.166 µM) and the IC50 [1] is reported as > 0.025 µg/mL. It also gave an IC50 [2, 11] of 0.008 µg/mL, an IC50 [3, 12] of 0.0245 µg/mL and an IC50 [4] of 0.0037 µg/mL (≈ 0.00474 µM). The IC50 [9] was > 10 µg/mL.

With `C(=Cc1ccccc1)c1ccccc1` [stilbene] the “IC50, growth inhibitory activity on HeLa cells” value ([5]; MTT, 96 h (Figure 1 legend; table footnote prints 120 h)) was “greater than 100 µg/mL”.

Compound `Cc1coc2c1C(=O)C(=O)c1c-2ccc2c1CCCC2(C)C` [tanshinone IIA] has an IC50 ([5]; Figure 1C, 96 h, MTT, read-out: Growth inhibitory Activity (ug/mL), HeLa Cells) of 1.4 µg/mL (≈ 4.76 µM), an IC50 [5, 13] of 1.33 µg/mL (≈ 4.52 µM) and an IC50 ([6]; HT-29, Figure 1C, 96 h, MTT, read-out: Growth inhibitory Activity (ug/mL), HT29 Cells) of 1.3 µg/mL (≈ 4.42 µM). The IC50 [6, 14] was 1.27 µg/mL (≈ 4.31 µM), the IC50 ([1]; episomal, MTT) was 2.3 µg/mL (≈ 7.81 µM) and the “low concentration with significant activity on 20850 (episomal) cells” value ([1]; p = 0.0058) was 2.5 µM. It also gave an IC50 ([2]; type 1 integrant, 120 h, MTT, read-out: IC50, growth inhibitory activity on W12 clone 20822) of 2 µg/mL, an IC50 ([2]; value quoted with the RT-PCR results, read-out: IC50, relative growth inhibitory effect on 20822) of 2.1 µM and an IC50 ([3]; type 2 integrant, 120 h, MTT, read-out: IC50, growth inhibitory activity on W12 clone 20862) of 3.1 µg/mL. For the same compound, the IC50 ([3]; value quoted with the RT-PCR results, read-out: IC50, relative growth inhibitory effect on 20862) was 2.8 µM, the IC50 [4] was 1.4 µg/mL (≈ 4.76 µM) and the “percentage of viable cells” value ([10]; tanshinone IIA 0.2 μM alone, 90% curcuminoids experiment) was 134%. For the same compound, the percent viable cells ([10]; tanshinone IIA 0.2 µΜ alone, 95% curcuminoids experiment) was 91.96%.

For lambda carrageenan, the “activity on 20850 cells, in words” value ([1]; after sonication, inverse pattern in a repeat experiment) was “highly active”.
